The source of these data is patent US12091425B2 (AMGEN INC., priority 2016, dated 2024).

The target in assay [1] is T1, Mcl-1/Bim interaction, recombinant human Mcl-1 (171-327) (Homo sapiens, UniProt Q07820).
T1 construct: made in house
The assay can be described thus: Cell free Mcl-1: Bim Affinity Assay (Mcl-1 HTRF). It counts as binding. An outline of the steps: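 Displacement of biotinylated Bim 51-76 peptide is followed by TR-FRET. Incubation runs overnight. Duplicate points are fitted with a four-parameter sigmoid to yield IC50.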

Assay [2] concerns OPM-2 human multiple myeloma cell line. As to the kind of experiment: Cell Viability Assay (OPM-2 10 FBS). It counts as cell-based. The note with it: OPM-2 cells, CellTiter-Glo. An outline of the steps:
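Plated at 3000 cells/well in 10% FBS complete medium, the cells received a serial compound dilution series and incubated 16 h at 37 °C with 5% CO2. CellTiter-Glo was then added; IC50 values were fitted with a logistic 4-parameter model.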
On the technique in general: In ATP-based viability assays light output follows the ATP content of the culture.

The mark [3] stands for this setting: TR-FRET, 0.1 nM Mcl-1 (171-327), 0.05 nM biotin-Bim (51-76).
Setting [4] is: Homo sapiens, OPM-2, 16 h, 16 h.
Setting [5] is: Homo sapiens, OPM-2, 16 h, 16 h incubation.
Where [6] appears, read: cell free Mcl-1:Bim TR-FRET, recombinant human Mcl-1 (171-327).

What is called IC50 is the concentration needed to halve the response being measured.

T1 sequence (Q07820 171-327): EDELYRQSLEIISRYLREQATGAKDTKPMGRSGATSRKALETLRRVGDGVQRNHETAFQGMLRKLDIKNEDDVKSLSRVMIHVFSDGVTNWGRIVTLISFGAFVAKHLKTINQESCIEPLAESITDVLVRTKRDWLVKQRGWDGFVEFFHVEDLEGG

Regarding `COCCCO[C@H]1/C=C/C[C@H](C)NS(=O)(=O)NC(=O)c2ccc3c(c2)N(C[C@@H]2CC[C@H]21)C[C@@]1(CCCc2cc(Cl)ccc21)CO3` (single isomer, unassigned) [Example 74], the values for the IC50 in assay [1] (setting [3]) and in assay [2] (setting [4]) were 1.13 nM and 381 nM, respectively.
Consider `CC1CC(N(C)C)CC(O)C2CCC2CN2CC3(CCCc4cc(Cl)ccc43)COc3ccc(cc32)C(=O)NS(=O)(=O)C1C` (single isomer, unassigned) [Example 248], for which the IC50 was 0.701 nM in assay [1] (setting [3]) and 2160 nM in assay [2] (setting [4]).
Turning to `C[C@H]1CCCS(=O)(=O)NC(=O)c2ccc3c(c2)N(C[C@@H]2CC[C@H]2[C@@H](O)C1)C[C@@]1(CCCc2cc(Cl)ccc21)CO3` (single isomer, unassigned) [Example 243], the figures for the IC50 in assay [1] (setting [3]) and in assay [2] (16 h) were 10.9 nM and 12100 nM, respectively.
Turning to `CCN1[C@@H](C)C/C=C/[C@H](O)[C@@H]2CC[C@H]2CN2C[C@@]3(CCCc4cc(Cl)ccc43)COc3ccc(cc32)C(=O)NS1(=O)=O` (single isomer, unassigned) [Example 57], the IC50 in assay [1] (setting [3]) amounted to 0.491 nM; in assay [2] (setting [4]), 555 nM.
Turning to `CC[C@@H]1CC/C=C/[C@H](OCC(=O)NCCN2CCOCC2)[C@@H]2CC[C@H]2CN2C[C@@]3(CCCc4cc(Cl)ccc43)COc3ccc(cc32)C(=O)NS1(=O)=O` [Example 1002, 2-(((1S,3′R,6′R,7′S,8′E,12′R)-6-chloro-12′-ethyl-13′,13′-dioxido-15′-oxo-3,4-dihydro-2H-spiro[naphthalene-1,22′-[20]oxa[13]thia[1,14]diazatetracyclo[14.7.2.0^3,6.0^19,24]pentacosa [8,16,18,24]tetraen]-7′-yl)oxy)-N-(2-(4-morpholinyl)ethyl)acetamide], the IC50 turned out to be 0.448 nM in assay [1] (setting [3]) and 1220 nM in assay [2] (setting [5]).
Consider `COCCO[C@H]1/C=C/C[C@H]2C[C@@H]2S(=O)(=O)NC(=O)c2ccc3c(c2)N(C[C@@H]2CC[C@H]21)C[C@@]1(CCCc2cc(Cl)ccc21)CO3` (single isomer, unassigned) [Example 805], for which the results for the IC50 in assay [1] (setting [6]) and in assay [2] (16 h) were 1.06 nM and 718 nM, respectively.
As for `COCCO[C@H]1/C=C/C[C@H](C)[C@H](c2ccccc2)S(=O)(=O)NC(=O)c2ccc3c(c2)N(C[C@@H]2CC[C@H]21)C[C@@]1(CCCc2cc(Cl)ccc21)CO3` (single isomer, unassigned) [Example 671], the IC50 turned out to be 19.8 nM in assay [1] (setting [6]) and 5650 nM in assay [2] (16 h).
For `COCC[C@H]1C[C@H](C)/C=C/[C@H](O)[C@@H]2CC[C@H]2CN2C[C@@]3(CCCc4cc(Cl)ccc43)COc3ccc(cc32)C(=O)NS1(=O)=O` (single isomer, unassigned) [Example 479], the IC50 in assay [1] (setting [6]) stood at 5.37 nM; in assay [2] (16 h), 8120 nM.
Consider `CO[C@H]1/C=C/[C@H](CC#N)C[C@@H](C)S(=O)(=O)NC(=O)c2ccc3c(c2)N(C[C@@H]2CC[C@H]21)C[C@@]1(CCCc2cc(Cl)ccc21)CO3` [Example 203, ((1S,3′R,6′R,7′S,8′E,10′R,12′R)-6-chloro-7′-methoxy-12′-methyl-13′,13′-dioxido-15′-oxo-3,4-dihydro-2H-spiro[naphthalene-1,22′-[20]oxa[13]thia[1,14]diazatetracyclo[14.7.2.0^3,6.0^19,24]pentacosa [8,16,18,24]tetraen]-10′-yl)acetonitrile], for which the concentration for half-maximal inhibition (IC50) came out at 0.366 nM in assay [1] (setting [3]) and 2790 nM in assay [2] (setting [4]).
With `CO[C@H]1/C=C/CC[C@@H](CCO)S(=O)(=O)NC(=O)c2ccc3c(c2)N(C[C@@H]2CC[C@H]21)C[C@@]1(CCCc2cc(Cl)ccc21)CO3` (single isomer, unassigned) [Example 617], the IC50 in assay [1] (setting [6]) was determined as 0.221 nM; in assay [2] (16 h) it was 11500 nM.
As to `COC1CC(N2[C@H](C)C/C=C/[C@H](O)[C@@H]3CC[C@H]3CN3C[C@@]4(CCCc5cc(Cl)ccc54)COc4ccc(cc43)C(=O)NS2(=O)=O)C1` (stereo partly drawn) [Example 79, (1S,3′R,6′R,7′S,8′E,11R)-6-chloro-7′-hydroxy-12′-(cis-3-methoxycyclobutyl)-11′-methyl-3,4-dihydro-2H,15′H-spiro[naphthalene-1,22′-[20]oxa[13]thia[1,12,14]triazatetracyclo[14.7.2.0^3,6.0^19,24]pentacosa[8,16,18,24]tetraen]-15′-one 13′,13′-dioxide], the IC50 was 4.18 nM in assay [1] (setting [3]) and 3620 nM in assay [2] (setting [4]).
In the same order, the values of `C[C@H]1C/C=C\[C@H](O)[C@@H]2CC[C@H]2CN2C[C@@]3(CCCc4cc(Cl)ccc43)COc3ccc(cc32)C(=O)NS(=O)(=O)N1C[C@@H]1CCCO1` (single isomer, unassigned) [Example 50] are 3.62 nM and 2210 nM.
With `CCOC[C@H]1[C@@H](C)C/C=C/[C@H](O)[C@@H]2CC[C@H]2CN2C[C@@]3(CCCc4cc(Cl)ccc43)COc3ccc(cc32)C(=O)NS1(=O)=O` (single isomer, unassigned) [Example 467], the IC50 in assay [1] (setting [3]) amounted to 1.45 nM; in assay [2] (16 h), 1510 nM.
For the compound `COCCOC1C=CCC2COCCC2S(=O)(=O)NC(=O)c2ccc3c(c2)N(CC2CCC21)CC1(CCCc2cc(Cl)ccc21)CO3` (single isomer, unassigned) [Example 322], the results for the IC50 in assay [1] (setting [3]) and in assay [2] (setting [4]) were 0.4 nM and 123 nM, respectively.
With `CC[C@@H]1C[C@@H](C)/C=C/[C@H](O)[C@@H]2CC[C@H]2CN2C[C@@]3(CCCc4cc(Cl)ccc43)COc3ccc(cc32)C(=O)NS1(=O)=O` (single isomer, unassigned) [Example 1023], the results for the IC50 in assay [1] (setting [3]) and in assay [2] (16 h incubation) were 0.307 nM and 501 nM, respectively.
Turning to `CCOC(=O)CO[C@H]1/C=C/C[C@H](C)[C@H](C)S(=O)(=O)NC(=O)c2ccc3c(c2)N(C[C@@H]2CC[C@H]21)C[C@@]1(CCCc2cc(Cl)ccc21)CO3` [Example 738, ethyl (((1S,3′R,6′R,7′S,8′E,11′S,12′S)-6-chloro-11′,12′-dimethyl-13′,13′-dioxido-15′-oxo-3,4-dihydro-2H-spiro[naphthalene-1,22′-[20]oxa[13]thia[1,14]diazatetracyclo[14.7.2.0^3,6.0^19,24]pentacosa[8,16,18,24]tetraen]-7′-yl)oxy)acetate], the IC50 in assay [1] (setting [6]) was 3.21 nM; in assay [2] (setting [4]) it was 1760 nM.
With `C[C@@H]1[C@@H](C)C/C=C/[C@H](OCCN2CC3(COC3)C2)[C@@H]2CC[C@H]2CN2C[C@@]3(CCCc4cc(Cl)ccc43)COc3ccc(cc32)C(=O)NS1(=O)=O` [Example 518, (1S,3′R,6′R,7′S,8′E,11′S,12′R)-6-chloro-11′,12′-dimethyl-7′-(2-(2-oxa-6-azaspiro[3.3]hept-6-yl)ethoxy)-3,4-dihydro-2H,15′H-spiro[naphthalene-1,22′-[20]oxa[13]thia[1,14]diazatetracyclo[14.7.2.0^3,6.0^19,24]pentacosa [8,16,18,24]tetraen]-15′-one 13′,13′-dioxide], the IC50 was 0.49 nM in assay [1] (setting [6]) and 257 nM in assay [2] (setting [4]).
`COC[C@H](O)C[C@@H]1CC/C=C/[C@H](OC)[C@@H]2CC[C@H]2CN2C[C@@]3(CCCc4cc(Cl)ccc43)COc3ccc(cc32)C(=O)NS1(=O)=O` (single isomer, unassigned) [Example 651]: the IC50 in assay [1] (setting [6]) amounted to 0.316 nM; in assay [2] (16 h), 229 nM.
Consider `C[C@@H]1[C@@H](C)C/C=C/[C@H](O[C@@H]2CCOC2=O)[C@@H]2CC[C@H]2CN2C[C@@]3(CCCc4cc(Cl)ccc43)COc3ccc(cc32)C(=O)NS1(=O)=O` (single isomer, unassigned) [Example 428], for which the IC50 in assay [1] (setting [3]) worked out at 0.333 nM; in assay [2] (setting [4]), 176 nM.
For the compound `O=C1NS(=O)(=O)N2CCOC[C@H]2C/C=C/[C@H](O)[C@@H]2CC[C@H]2CN2C[C@@]3(CCCc4cc(Cl)ccc43)COc3ccc1cc32` (single isomer, unassigned) [Example 343], the results for the IC50 in assay [1] (setting [3]) and in assay [2] (setting [4]) were 7.27 nM and 6490 nM, respectively.
For the compound `CO[C@H]1/C=C/CC[C@@H](CCS(=O)(=O)C(C)(C)C)S(=O)(=O)NC(=O)c2ccc3c(c2)N(C[C@@H]2CC[C@H]21)C[C@@]1(CCCc2cc(Cl)ccc21)CO3` (single isomer, unassigned) [Example 156], the IC50 in assay [1] (setting [3]) was 0.831 nM; in assay [2] (16 h) it was 266 nM.
`CC12CC=CC(O)C3CCC3CN3CC4(CCCc5cc(Cl)ccc54)COc4ccc(cc43)C(=O)NS(=O)(=O)C1CCC2` (single isomer, unassigned) [Example 133]: the IC50 in assay [1] (setting [3]) was determined as 2 nM; in assay [2] (setting [4]) it was 2750 nM.
`C[C@@H]1C[C@@H](C)/C=C/[C@H](O)[C@@H]2CC[C@H]2CN2C[C@@]3(CCCc4cc(Cl)ccc43)COc3ccc(cc32)C(=O)NS1(=O)=O` [Example 1014, (1S,3′R,6′R,7′S,8′E,10′R,12′R)-6-chloro-7′-hydroxy-10′,12′-dimethyl-3,4-dihydro-2H,15′H-spiro[naphthalene-1,22′-[20]oxa[13]thia[1,14]diazatetracyclo[14.7.2.0^3,6.0^19,24]pentacosa [8,16,18,24]tetraen]-15′-one 13′,13′-dioxide]: the IC50 in assay [1] (setting [3]) stood at 0.267 nM; in assay [2] (setting [5]), 329 nM.
Turning to `COCCO[C@H]1/C=C/C[C@H](C)N(Cc2ccc(OC)cc2)S(=O)(=O)NC(=O)c2ccc3c(c2)N(C[C@@H]2CC[C@H]21)C[C@@]1(CCCc2cc(Cl)ccc21)CO3` [Example 82, (1S,3′R,6′R,7′S,8′E,11′S)-6-chloro-12′-(4-methoxybenzyl)-7′-(2-methoxyethoxy)-11′-methyl-3,4-dihydro-2H,15′H-spiro[naphthalene-1,22′-[20]oxa[13]thia[1,12,14]triazatetracyclo[14.7.2.0^3,6.0^19,24]pentacosa[8,16,18,24]tetraen]-15′-one 13′,13′-dioxide], the IC50 was determined as 7.8 nM in assay [1] (setting [3]) and 2920 nM in assay [2] (setting [4]).
